Test results reported in PMC7217877, “N-AS-triggered SPMs are direct regulators of microglia in a model of Alzheimer’s disease” (Nature Communications, 2020).
Values joined by “and” are separate entries in the source; they are usually repeats but may differ in a detail not shown here. Identical values can stand only once.

B1: Sphk1: purified sphingosine kinase1 enzyme (Cayman, 10348) supplemented to cell lysates (protein, UniProt Q9NYA1 1-384, looked up)
Sphingosine kinase 1: MDPAGGPRGVLPRPCRVLVLLNPRGGKGKALQLFRSHVQPLLAEAEISFTLMLTERRNHARELVRSEELGRWDALVVMSGDGLMHEVVNGLMERPDWETAIQKPLCSLPAGSGNALAASLNHYAGYEQVTNEDLLTNCTLLLCRRLLSPMNLLSLHTASGLRLFSVLSLAWGFIADVDLESEKYRRLGEMRFTLGTFLRLAALRTYRGRLAYLPVGRVGSKTPASPVVVQQGPVDAHLVPLEEPVPSHWTVVPDEDFVLVLALLHSHLGSEMFAAPMGRCAAGVMHLFYVRAGVSRAMLLRLFLAMEKGRHMEYECPYLVYVPVVAFRLEPKDGKGVFAVDGELMVSEAVQGQVHPNYFWMVSGCVEPPPSWKPQQMPPPEEPL

Test system: microglia
Assay: quantification of 15R-LXA4, RvE1, RvD1 in primary cells (LC-MS/MS)
Format: cell-based, C57BL/6 mice
Parameters: unit not given here
Settings: replicates
Protocol: Lipid mediators metabololipidomics were performed according to previously described procedures with minor modifications[4],[30]. To confirm the biosynthesis of lipid mediators by recombinant COX2 treated with N-AS or aspirin, 10 U of human recombinant COX2 (Cayman, 60122) was incubated in the presence of 500 μM aspirin (Sigma-Aldrich, A5376) or N-AS (Sigma-Aldrich, 01912) at 37 °C for 30 min. The enzyme was filtered with a Microcon column (Millipore) to remove unreacted aspirin or N-AS and was then resuspended in 0.1 M Tris-HCl (pH 8.0). Next, 500 μM phenol (Sigma-Aldrich) and 1 μM hematin-porcine (Sigma-Aldrich) were added immediately before incubation with 100 μM AA, EPA or DHA (Cayman) at 37 °C for 2 h, respectively. The mixtures were incubated with 30 U of human 5-LOX (Cayman, 60402) containing 2 mM CaCl2 (Sigma-Aldrich), 1 mM ATP (Amresco) and 5 μM 13-HpODE (Cayman) as activators. Also, to validate the importance of residue S565 for N-AS-acetylation of COX2 and production of SPMs, 10 U of the COX2 S565A mutant was used in the above-described method. In addition, to confirm SPM generation in neurons and microglia, these cells were treated with Aβ and sonicated in neuronal and glial culture medium. […] To evaluate the relationship of N-AS and SPM production in microglia, microglia were isolated from WT, APP/PS1, and APP/PS1 treated with N-AS mice at 9 months of age. The microglia were sonicated and resuspended in microglial culture medium. The supernatants were incubated with 100 μM AA, EPA, and DHA (Cayman) at 37 °C for 2 h. A 50 μl aliquot of the mixture from each cell lysate was added to a 250 μl aliquot of 1 ng ml^−1 of 15S-LXA4-d5 (internal standard, Cayman) methanol solution. After vortexing for 10 min and centrifuging at 15,974×g for 5 min, the supernatant was subjected to the analysis of the lipid mediators using an Agilent 6470 Triple Quad LC-MS/MS system (Agilent) coupled to an Agilent 1290 HPLC system. Chromatographic separation was achieved using a Synergi Polar RP (4 μm, 2.0 mm i.d. × 150 mm, Phenomenex). Analytes were eluted with a mobile phase consisting of water: formic acid (100:0.1 v/v) (phase A) and methanol: formic acid (100:0.1 v/v) (phase B) in gradient elution mode for 23 min a flow rate of 0.2 ml min^−1. The elution gradient was as follows: from 0 to 0.1 min the content of phase A was 37% and the content of phase A was decreased to 10% and maintained for 5.5 min. The content of phase A was increased back to 37% at 6.0 min and maintained for 23 min. Quantification was carried out using MRM in negative ionization mode and collision energy of 10–15 eV. The mass transition from Q1 to Q3 is shown in Supplementary Table 2. In this study, the peak areas for all components were automatically integrated using MassHunter B 06.00. […]

Molecule | 15R-LxA4 (Fig 3i) (Ab + supplement) | RvD1 (Fig 3i) (Ab + supplement) | RvE1 (Fig 3i) (Ab + supplement) | 15R-LxA4 (Fig 3i) (Ab, no supplement) | RvD1 (Fig 3i) (Ab, no supplement) | RvE1 (Fig 3i) (Ab, no supplement)
CC(=O)SCCNC(=O)CCNC(=O)[C@H](O)C(C)(C)COP(=O)(O)OP(=O)(O)OC[C@H]1O[C@@H](n2cnc3c(N)ncnc32)[C@H](O)[C@@H]1OP(=O)(O)O [Acetyl-CoA, acetyl-CoA] | 23.4411 and 23.4018 and 22.7231 and 22.8804 and 24.0018 and 22.8017 | 1.293 and 1.217 and 1.321 and 1.255 and 1.269 and 1.288 | 7.62 and 7.421 and 7.916 and 7.52 and 7.668 and 7.718 |  |  | 
CCCCCCCCCCCCC/C=C/[C@@H](O)[C@H](CO)NC(C)=O [N-AS, N-((2S,3R,E)-1,3-Dihydroxyoctadec-4-en-2-yl)acetamide] | 7.914 and 7.871 and 7.582 and 7.755 and 8.0725 and 7.669 | 0.9961 and 0.9192 and 1.008 and 0.9576 and 0.9636 and 0.9828 | 3.41 and 3.669 and 3.726 and 3.54 and 3.698 and 3.633 |  |  | 
CCCCCCCCCCCCC/C=C/[C@@H](O)[C@@H](N)CO [Sph, sphingosine] | 0.0305 and 0.03209 and 0.03444 and 0.02809 and 0.03291 and 0.03127 | 0.01033 | 0.01434 and 0.01128 and 0.01433 and 0.01281 (2×) and 0.01357 |  |  | 
Ab: Aβ 1–42 (Invitrogen, 03112) used to induce an AD environment in cells |  |  |  | 0.02349 and 0.02377 and 0.02373 and 0.02259 and 0.02438 and 0.02316 | 0.01012 | 0.01237 and 0.02326 and 0.01244 and 0.01782 and 0.01785 and 0.01513
B1 | 0.02407 and 0.02353 and 0.02184 and 0.02402 and 0.02413 and 0.02293 | 0.01112 | 0.01218 and 0.0124 and 0.01241 (2×) and 0.01229 and 0.01235 |  |  | 
